# Results as given in patent US20070128217A1 (priority 2003, published 2007).
# Experiments:
# [1] = tested on: antibodies in sera from SARS patients (sera 1a, 1b, 2, 6, 37, 62, London, SARS-yellow, SARS-green); type: binding, human; design: Binding of serum 6 to linear peptides of protein X1 of SARS-CoV Urbani / Binding of serum 37 to linear peptides of protein X1 of SARS-CoV Urbani / Binding of serum 6 to looped/cyclic peptide (PEPSCAN-ELISA) / Binding of serum 37 to looped/cyclic peptide (PEPSCAN-ELISA) / Binding of serum 37 to looped/cyclic peptides of protein X1 of SARS-CoV Urbani / Binding of serum 6 to linear peptides of protein X2 / Binding of serum 37 to linear peptides of protein X2 / Binding of serum 37 to looped/cyclic peptides of protein X2 of SARS-CoV Urbani / Binding of serum 6 to linear peptides of protein M of SARS-CoV Urbani / Binding of serum 37 to linear peptides of protein M of SARS-CoV Urbani / Binding of serum 6 to looped/cyclic peptides of protein M of SARS-CoV Urbani / Binding of serum 37 to looped/cyclic peptides of protein M of SARS-CoV Urbani / Binding of serum 6 to linear peptides of protein X3 of SARS-CoV Urbani / Binding of serum 37 to linear peptides of protein X3 of SARS-CoV Urbani / Binding of serum 37 to looped/cyclic peptides of protein X3 of SARS-CoV Urbani / Binding of serum 6 to linear peptides of protein X4 of SARS-CoV Urbani / Binding of serum 37 to linear peptides of protein X4 of SARS-CoV Urbani / Binding of serum 37 to looped/cyclic peptides of protein X4 of SARS-CoV Urbani / Binding of serum 6 to linear peptides of protein X5 of SARS-CoV Urbani / Binding of serum 37 to linear peptides of protein X5 of SARS-CoV Urbani / Binding of serum 37 to looped/cyclic peptides of protein X5 of SARS-CoV Urbani / Binding of serum 6 to linear peptides of protein N of SARS-CoV Urbani / Binding of serum 37 to linear peptides of protein N of SARS-CoV Urbani / Binding of serum 6 to linear peptide (PEPSCAN-ELISA) / Binding of serum 1a to looped/cyclic peptides of protein N of SARS-CoV Urbani / Binding of serum 1b to looped/cyclic peptides of protein N of SARS-CoV Urbani / Binding of serum 2 to looped/cyclic peptides of protein N of SARS-CoV Urbani / Binding of serum 6 to looped/cyclic peptides of protein N of SARS-CoV Urbani / Binding of serum 37 to looped/cyclic peptides of protein N of SARS-CoV Urbani / Binding of serum 62 to looped/cyclic peptides of protein N of SARS-CoV Urbani / Binding of serum London to looped/cyclic peptides of protein N of SARS-CoV Urbani / Binding of serum SARS-green to looped/cyclic peptides of protein N of SARS-CoV Urbani: unit not given here
# [2] = tested on: control sera (pooled serum of ten healthy LUMC hospital workers; commercial negative donor pooled serum from the Dutch bloodbank); type: binding, human; design: Binding of Control serum LUMC to linear peptides / Binding of Control serum Blood-bank to linear peptides / Binding of Control serum LUMC to looped peptides / Binding of Control Serum Blood-Bank to Looped peptides / Binding of Control serum LUMC to linear peptides of the protein M of SARS-CoV Urbani / Binding of Control serum Blood-bank to linear peptides of the protein M of SARS-CoV Urbani / Binding of Control serum LUMC to looped peptides of the protein M of SARS-CoV Urbani / Binding of Control Serum Blood-Bank to Looped peptides of the protein M of SARS-CoV Urbani: unit not given here
# [3] = tested on: rabbit serum obtained by immunizing a rabbit with the SARS-CoV strain Frankfurt 1; type: binding; design: Binding of a rabbit serum to linear peptides / Binding of a rabbit serum to looped peptides / Rabbit serum linear peptides / Rabbit serum looped peptides / Binding of a rabbit serum to linear peptides of protein N of SARS-CoV Urbani (Rabbit serum linear peptides) / Binding of a rabbit serum to looped/cyclic peptides of protein N of SARS-CoV Urbani (Rabbit serum looped peptides): unit not given here
sequence,measurement,setting,value
SQIQLSLLKVTAFQH,Binding of serum 1a to linear peptides of protein X2,[1],0.6
same,Binding of serum 1a to looped/cyclic peptides of protein X2 of SARS-CoV Urbani,[1],0.5
same,Binding of serum 1b to linear peptides of protein X2,[1],0.5
same,Binding of serum 1b to looped/cyclic peptides of protein X2 of SARS-CoV Urbani,[1],0.5
same,Binding of serum 2 to linear peptides of protein X2,[1],0.4
same,Binding of serum 2 to looped/cyclic peptides of protein X2 of SARS-CoV Urbani,[1],0.4
same,Binding of serum 6 to linear peptides of protein X2,[1],0.5
same,Binding of serum 6 to looped/cyclic peptides of protein X2 of SARS-CoV Urbani,[1],0.6
same,Binding of serum 37 to linear peptides of protein X2,[1],0.5
same,Binding of serum 37 to looped/cyclic peptides of protein X2 of SARS-CoV Urbani,[1],0.4
same,Binding of serum 62 to linear peptides of protein X2,[1],0.4
same,Binding of serum 62 to looped/cyclic peptides of protein X2 of SARS-CoV Urbani,[1],0.6
same,Binding of serum London to linear peptides of protein X2,[1],0.3
same,Binding of serum London to looped/cyclic peptides of protein X2 of SARS-CoV Urbani,[1],1.0
same,Binding of serum SARS-green to linear peptides of protein X2,[1],0.2
same,Binding of serum SARS-green to looped/cyclic peptides of protein X2 of SARS-CoV Urbani,[1],0.2
same,Binding of serum SARS-yellow to linear peptides of protein X2,[1],0.3
same,Binding of serum SARS-yellow to looped/cyclic peptides of protein X2 of SARS-CoV Urbani,[1],0.7
same,Binding of Control Serum Blood-Bank to Looped peptides,[2],0.6
same,Binding of Control serum Blood-bank to linear peptides,[2],0.5
same,Binding of Control serum LUMC to linear peptides,[2],0.7
same,Binding of Control serum LUMC to looped peptides,[2],0.6
same,Binding of a rabbit serum to linear peptides,[3],0.7
same,Binding of a rabbit serum to looped peptides,[3],0.5
SRTLSYYKLGASQRV,Binding of serum 1a to linear peptides of protein M of SARS-CoV Urbani,[1],0.8
same,Binding of serum 1a to looped/cyclic peptides of protein M of SARS-CoV Urbani,[1],0.9
same,Binding of serum 1b to linear peptides of protein M of SARS-CoV Urbani,[1],0.5
same,Binding of serum 1b to looped/cyclic peptides of protein M of SARS-CoV Urbani,[1],0.3
same,Binding of serum 2 to linear peptides of protein M of SARS-CoV Urbani,[1],0.8
same,Binding of serum 2 to looped/cyclic peptides of protein M of SARS-CoV Urbani,[1],0.7
same,Binding of serum 6 to linear peptides of protein M of SARS-CoV Urbani,[1],0.4
same,Binding of serum 6 to looped/cyclic peptides of protein M of SARS-CoV Urbani,[1],0.9
same,Binding of serum 37 to linear peptides of protein M of SARS-CoV Urbani,[1],0.8
same,Binding of serum 37 to looped/cyclic peptides of protein M of SARS-CoV Urbani,[1],0.8
same,Binding of serum 62 to linear peptides of protein M of SARS-CoV Urbani,[1],0.8
same,Binding of serum 62 to looped/cyclic peptides of protein M of SARS-CoV Urbani,[1],0.7
same,Binding of serum London to linear peptides of protein M of SARS-CoV Urbani,[1],0.3
same,Binding of serum London to looped/cyclic peptides of protein M of SARS-CoV Urbani,[1],0.3
same,Binding of serum SARS-green to linear peptides of protein M of SARS-CoV Urbani,[1],0.2
same,Binding of serum SARS-green to looped/cyclic peptides of protein M of SARS-CoV Urbani,[1],0.4
same,Binding of serum SARS-yellow to linear peptides of protein M of SARS-CoV Urbani,[1],0.1
same,Binding of serum SARS-yellow to looped/cyclic peptides of protein M of SARS-CoV Urbani,[1],0.8
same,Binding of Control Serum Blood-Bank to Looped peptides of the protein M of SARS-CoV Urbani,[2],0.6
same,Binding of Control serum Blood-bank to linear peptides of the protein M of SARS-CoV Urbani,[2],0.9
same,Binding of Control serum LUMC to linear peptides of the protein M of SARS-CoV Urbani,[2],0.5
same,Binding of Control serum LUMC to looped peptides of the protein M of SARS-CoV Urbani,[2],0.8
same,Rabbit serum linear peptides,[3],0.6
same,Rabbit serum looped peptides,[3],0.6
SSLTSLLKTHRMCKY,Binding of serum 1a to linear peptides of protein X2,[1],0.6
same,Binding of serum 1a to looped/cyclic peptides of protein X2 of SARS-CoV Urbani,[1],0.5
same,Binding of serum 1b to linear peptides of protein X2,[1],0.5
same,Binding of serum 1b to looped/cyclic peptides of protein X2 of SARS-CoV Urbani,[1],0.5
same,Binding of serum 2 to linear peptides of protein X2,[1],0.4
same,Binding of serum 2 to looped/cyclic peptides of protein X2 of SARS-CoV Urbani,[1],0.4
same,Binding of serum 6 to linear peptides of protein X2,[1],0.5
same,Binding of serum 6 to looped/cyclic peptides of protein X2 of SARS-CoV Urbani,[1],0.3
same,Binding of serum 37 to linear peptides of protein X2,[1],0.5
same,Binding of serum 37 to looped/cyclic peptides of protein X2 of SARS-CoV Urbani,[1],0.3
same,Binding of serum 62 to linear peptides of protein X2,[1],0.6
same,Binding of serum 62 to looped/cyclic peptides of protein X2 of SARS-CoV Urbani,[1],0.6
same,Binding of serum London to linear peptides of protein X2,[1],0.4
same,Binding of serum London to looped/cyclic peptides of protein X2 of SARS-CoV Urbani,[1],0.2
same,Binding of serum SARS-green to linear peptides of protein X2,[1],0.5
same,Binding of serum SARS-green to looped/cyclic peptides of protein X2 of SARS-CoV Urbani,[1],0.2
same,Binding of serum SARS-yellow to linear peptides of protein X2,[1],0.3
same,Binding of serum SARS-yellow to looped/cyclic peptides of protein X2 of SARS-CoV Urbani,[1],0.6
same,Binding of Control Serum Blood-Bank to Looped peptides,[2],0.7
same,Binding of Control serum Blood-bank to linear peptides,[2],0.8
same,Binding of Control serum LUMC to linear peptides,[2],0.4
same,Binding of Control serum LUMC to looped peptides,[2],0.6
same,Binding of a rabbit serum to linear peptides,[3],0.3
same,Binding of a rabbit serum to looped peptides,[3],0.5
